Measured values as given in ChEMBL document CHEMBL1151706, “Hetero-Diels-Alder reaction of 1,3-bis(trimethylsilyloxy)-1,3-butadienes with arylsulfonylcyanides. Synthesis and antimicrobial activity of 4-hydroxy-2-(arylsulfonyl)pyridines” (2008).
≈ marks a conversion by molar mass, not a printed value. Calls of active or inactive are those of the source. The calls are words filed in the database; no cut-off is given here.

Experiments:
Type in all cases: functional
Escherichia coli = assay: Antibacterial activity against Escherichia coli ATCC 11229 assessed as diameter of the inhibition zone at 1 uM/disk after 4 hrs by disk diffusion method
Candida maltosa = assay: Antifungal activity against Candida maltosa SBUG 700 assessed as diameter of the inhibition zone at 1 uM/disk by disk diffusion method
Bacillus subtilis [1] = assay: Antibacterial activity against Bacillus subtilis ATCC 6051 assessed as diameter of the inhibition zone at 1 uM/disk after 4 hrs by disk diffusion method; conditions: for zone of inhibition at 1 µM: ATCC 6051, 4 h, read-out: IZ
Staphylococcus aureus [2] = assay: Antibacterial activity against Staphylococcus aureus ATCC 6538 assessed as diameter of the inhibition zone at 1 uM/disk after 4 hrs by disk diffusion method; conditions: for zone of inhibition at 1 µM: ATCC 6538, 4 h, read-out: IZ
Bacillus subtilis [3] = assay: Antibacterial activity against Bacillus subtilis ATCC 6051 by dilution assay
Staphylococcus aureus [4] = assay: Antibacterial activity against Staphylococcus aureus ATCC 6538 by dilution assay

| Molecule | Activity (Escherichia coli) | Activity (Candida maltosa) | zone of inhibition at 1 µM (Bacillus subtilis [1]) [mm] | Activity (Staphylococcus aureus [2]) | MIC (Bacillus subtilis [3]) [µM] | MIC (Staphylococcus aureus [4]) [µM] | Activity (Bacillus subtilis [1]) | zone of inhibition at 1 µM (Staphylococcus aureus [2]) [mm] | inhibition zone (IZ) (Candida maltosa) [mm] | zone of inhibition at 1 µM (Candida maltosa; read-out: IZ) [mm] | zone of inhibition at 1 µM (Escherichia coli; ATCC 11229, 4 h, read-out: IZ) [mm] |
| --- | --- | --- | --- | --- | --- | --- | --- | --- | --- | --- | --- |
| CCOc1nc(S(=O)(=O)c2ccc(C)cc2)cc(O)c1F | inactive | inactive | 11 | inactive | – | – | – | – | – | – | – |
| Cc1ccc(S(=O)(=O)c2cc(O)c(Sc3ccccc3)c(C)n2)cc1 | inactive | inactive | 10 | inactive | 340 (≈ 126 µg/mL) | 670 (≈ 249 µg/mL) | – | – | – | – | – |
| CC(C)Oc1cc(O)cc(S(=O)(=O)c2ccccc2)n1 | inactive | inactive | – | inactive | – | – | inactive | – | – | – | – |
| Cc1ccc(Sc2c(O)cc(S(=O)(=O)c3ccc(C)cc3)nc2C)cc1 | inactive | inactive | 10 | – | 160 (≈ 61.7 µg/mL) | 320 (≈ 123 µg/mL) | – | 8 | – | – | – |
| Cc1ccc(S(=O)(=O)c2cc(O)c(Oc3cccc(C)c3)c(C)n2)cc1 | inactive | inactive | – | inactive | – | – | inactive | – | – | – | – |
| CCOc1cc(O)cc(S(=O)(=O)c2ccccc2)n1 | inactive | inactive | – | inactive | – | – | inactive | – | – | – | – |
| CCOc1cc(O)cc(S(=O)(=O)c2ccc(C)cc2)n1 | inactive | inactive | – | inactive | – | – | inactive | – | – | – | – |
| Cc1ccc(S(=O)(=O)c2cc(O)cc(C)n2)cc1 | inactive | inactive | – | inactive | – | – | inactive | – | – | – | – |
| COc1cc(O)cc(S(=O)(=O)c2ccc(C)cc2)n1 | inactive | inactive | – | – | – | – | inactive | 10 | – | – | – |
| COc1cc(O)cc(S(=O)(=O)c2ccccc2)n1 | inactive | inactive | – | inactive | – | – | inactive | – | – | – | – |
| CCc1c(O)cc(S(=O)(=O)c2ccccc2)nc1OC | inactive | inactive | – | inactive | – | – | inactive | – | – | – | – |
| NYSTATIN | – | – | – | – | – | – | – | – | 28 | – | – |
| CCOc1nc(S(=O)(=O)c2ccc(C)cc2)cc(O)c1Cl | inactive | – | 10 | – | 1520 (≈ 498 µg/mL) | 1530 (≈ 502 µg/mL) | – | 13 | – | 9 | – |
| CC1(C)S[C@@H]2[C@H](NC(=O)[C@H](N)c3ccccc3)C(=O)N2[C@H]1C(=O)O [AMPICILLIN] | – | – | 25 | – | 11 (≈ 3.84 µg/mL) | 3 (≈ 1.05 µg/mL) | – | 27 | – | – | 19 |
| Cc1ccc(Oc2c(O)cc(S(=O)(=O)c3ccc(C)cc3)nc2C)cc1 | inactive | inactive | 7 | – | – | – | – | 8 | – | – | – |
| CCOc1nc(S(=O)(=O)c2ccccc2)cc(O)c1Oc1cc(C)cc(C)c1 | inactive | inactive | – | inactive | – | – | inactive | – | – | – | – |
| COCc1cc(O)cc(S(=O)(=O)c2ccc(C)cc2)n1 | inactive | inactive | – | inactive | – | – | inactive | – | – | – | – |
| CCOc1nc(S(=O)(=O)c2ccccc2)cc(O)c1Cl | inactive | inactive | 11 | – | 1590 (≈ 499 µg/mL) | 1590 (≈ 499 µg/mL) | – | 12 | – | – | – |
| Cc1nc(S(=O)(=O)c2ccccc2)cc(O)c1Sc1ccccc1 | inactive | inactive | 10 | – | – | – | – | 9 | – | – | – |
| CCOc1nc(S(=O)(=O)c2ccc(C)cc2)cc(O)c1Oc1cc(C)cc(C)c1 | inactive | inactive | – | – | – | – | inactive | 8 | – | – | – |
| Cc1cccc(Sc2c(O)cc(S(=O)(=O)c3ccccc3)nc2C)c1 | inactive | inactive | 10 | – | 330 (≈ 123 µg/mL) | 670 (≈ 249 µg/mL) | – | 13 | – | – | – |
| CCOc1nc(S(=O)(=O)c2ccccc2)cc(O)c1F | inactive | inactive | 11 | – | 1680 (≈ 499 µg/mL) | 3360 (≈ 999 µg/mL) | – | 12 | – | – | – |
| COc1nc(S(=O)(=O)c2ccccc2)cc(O)c1Sc1ccccc1 | inactive | inactive | 10 | inactive | – | – | – | – | – | – | – |
| COCCOc1cc(O)cc(S(=O)(=O)c2ccc(C)cc2)n1 | inactive | inactive | – | inactive | – | – | inactive | – | – | – | – |
